Measured values published in article PMC7954794, “Protein context shapes the specificity of SH3 domain-mediated interactions in vivo” (Nature Communications, 2021).

Key:
Type in all cases: cell-based, Saccharomyces cerevisiae
[1] = test system: PPIs identified as affected by the SH3 domain deletions; experiment: Liquid DHFR-PCA low-throughput validation of PPIs affected by SH3 deletion (Fig. S1D-E); details: Deletedscore/WTscore
Description: Liquid DHFR-PCA low-throughput experiments were performed to validate the PPIs identified as affected by the SH3 domain deletions in the high-throughput solid DHFR-PCA screen (256 PPIs weaker or lost and 116 PPIs stronger or gained following domain deletions). Mating and the diploid selection were performed as described for the large-scale experiment, with the exception that the plates were in 384 formats. Following the second diploid selection, diploid cells were inoculated in a 96 v-shaped well plate using a robotically manipulated 96 pin tool in a synthetic complete medium with MSG at pH 6.0 with NAT and HPH. After 48 h of growth, optical density (OD) was read using a TECAN Infinite F200 Pro, and dilutions to 1 OD in sterile nanopure water were prepared. Cells were then diluted to 0.1 OD by combining 25 µl of cell suspension at OD = 1 and 225 µl of PCA selection media without agar in a 96-wells plate. Plates were incubated at 30 °C in a TECAN Infinite M Nano and OD was monitored each 15 min for 72 h.

[2] = test system: growth of yeast strains under 51 stress conditions; experiment: Growth assays in 51 stress conditions (Fig. 1E-F, S2D, S5B); set-up: key to Growth (Fig. S2D) / growth of ABP1 SH3-swapped strains in stress condition: log2 colony size, average of median per strain (growth score); details: FigS2D
Description: All WT, SH3-deleted, KO (except for CDC25 which is the only essential SH3-containing gene in yeast), ABP1 SH3-swapped, and SLA1 SH3-shuffled strains were grown on omnitrays in 1536 formats and robotically manipulated with a pin tool (the DHFR F[1,2] bait strains were used except for the KO strains). Each strain was randomly positioned in 6 replicates per plate and two plates per condition were performed, for 12 replicates per strain in total. A border of two rows and two columns of WT strains (BY4741) around the plate was used to remove border effects. Strains were grown on YPD media for two days at 30 °C. They were then replicated on 51 different media that are described in the Supplementary Table 3 and were incubated at 37 °C in a spImager custom platform with images acquired every two hours for four days. The colony sizes from plate pictures were also measured with the R package “Gitter” and the output was manually inspected. Positions with an abnormality in colony circularity were removed. The colony sizes after 74 h of incubation at 37 °C were log2 transformed and used for the analyses. First, the differences between the two plate replicates were corrected to remove plate effects. The median colony size was calculated for each strain per plate. Strains with a difference in their median colony size of more than two between the two plate replicates were removed. Finally, the average of the median colony size was calculated for each strain per condition (growth score).

[3] = test system: BEM1-1; experiment: DHFR-PCA on solid medium, bait BEM1-1 (Fig. 1B); details: bait BEM1-1, label = prey; 2-8 replicates
Excerpt: (§1) Supplement 41467_2021_21873_MOESM8_ESM.xlsx, sheet "Fig1B" | column: medsize; medrep; Ratio; Score

[4] = test system: BUD14; experiment: DHFR-PCA on solid medium, bait BUD14 (Fig. 1B); details: bait BUD14, label = prey; 4 replicates
Excerpt: as §1

[5] = test system: BBC1; experiment: DHFR-PCA on solid medium, bait BBC1 (Fig. 1B); details: bait BBC1, label = prey; 2-4 replicates
Excerpt: as §1

[6] = test system: BEM1-2; experiment: DHFR-PCA on solid medium, bait BEM1-2 (Fig. 1B); details: bait BEM1-2, label = prey; 2-8 replicates
Excerpt: as §1

[7] = test system: ABP1; experiment: DHFR-PCA on solid medium, bait ABP1 (Fig. 1B); details: bait ABP1, label = prey; 2-4 replicates
Excerpt: as §1

[8] = test system: BOI2; experiment: DHFR-PCA on solid medium, bait BOI2 (Fig. 1B); details: bait BOI2, label = prey; 3-8 replicates
Excerpt: as §1

[9] = test system: BOI1; experiment: DHFR-PCA on solid medium, bait BOI1 (Fig. 1B); details: bait BOI1, label = prey
Excerpt: as §1

[10] = test system: BZZ1-1; experiment: DHFR-PCA on solid medium, bait BZZ1-1 (Fig. 1B); details: bait BZZ1-1, label = prey; 4 replicates
Excerpt: Supplement 41467_2021_21873_MOESM8_ESM.xlsx, sheet "Fig1B" | column: medsize; medrep; Score

Substance: RVS167
- Ratio ([1]; prey YLR144C_1): 0.9983
- Ratio ([1]; prey YLR166C_1): 0.4047
- Ratio ([1]; prey YLR314C_1): 1.009
- Ratio ([1]; prey YLR332W_1): 0.5527
- Ratio ([1]; prey YML016C_1): 0.7209
- Ratio ([1]; prey YMR192W_1): 0.4415
- Ratio ([1]; prey YNL084C_1): 0.8207
- Ratio ([1]; prey YNL106C_1): 0.4642
- Ratio ([1]; prey YNL255C_1): 0.9975
- Ratio ([1]; prey YPL246C_1): 0.6027
- Ratio ([1]; prey YPL249C_1): 0.4423
- Ratio ([1]; prey YPR055W_1): 0.5489
- growth of ABP1 SH3-swapped strains in stress condition ([2]; Bathophenanthroline.0.1uM): 10.8266
- growth of ABP1 SH3-swapped strains in stress condition ([2]; Bathophenanthroline.10uM): 10.6504
- growth of ABP1 SH3-swapped strains in stress condition ([2]; Bathophenanthroline.1uM): 10.7571
- growth of ABP1 SH3-swapped strains in stress condition ([2]; CaCl2.100mM): 10.7957
- growth of ABP1 SH3-swapped strains in stress condition ([2]; CaCl2.250mM): 10.7147
- growth of ABP1 SH3-swapped strains in stress condition ([2]; CaCl2.500mM): 10.2304
- growth of ABP1 SH3-swapped strains in stress condition ([2]; Caffein.10mM): 10.0011
- growth of ABP1 SH3-swapped strains in stress condition ([2]; Caffein.2mM): 10.9656
- growth of ABP1 SH3-swapped strains in stress condition ([2]; CdCl2.100uM): 9.478
- growth of ABP1 SH3-swapped strains in stress condition ([2]; CdCl2.10uM): 10.8675
- growth of ABP1 SH3-swapped strains in stress condition ([2]; CdCl2.50uM): 10.0052
- growth of ABP1 SH3-swapped strains in stress condition ([2]; CuSO4.1mM): 10.4401
- growth of ABP1 SH3-swapped strains in stress condition ([2]; CuSO4.5mM): 7.809
- growth of ABP1 SH3-swapped strains in stress condition ([2]; Cycloheximide.0.05.uM): 11.0732
- growth of ABP1 SH3-swapped strains in stress condition ([2]; Cycloheximide.0.2.uM): 10.5897
- growth of ABP1 SH3-swapped strains in stress condition ([2]; Cycloheximide.0.5.uM): 10.0755
- growth of ABP1 SH3-swapped strains in stress condition ([2]; DMSO.2.): 10.9922
- growth of ABP1 SH3-swapped strains in stress condition ([2]; DMSO.6.): 9.827
- growth of ABP1 SH3-swapped strains in stress condition ([2]; DMSO.8.): 9.078
- growth of ABP1 SH3-swapped strains in stress condition ([2]; Ethanol.2.): 10.7562
- growth of ABP1 SH3-swapped strains in stress condition ([2]; Ethanol.6.): 10.3054
- growth of ABP1 SH3-swapped strains in stress condition ([2]; Ethanol.8.): 10.1073
- growth of ABP1 SH3-swapped strains in stress condition ([2]; Galactose.2.): 10.7616
- growth of ABP1 SH3-swapped strains in stress condition ([2]; Glycerol.2.): 9.801
- growth of ABP1 SH3-swapped strains in stress condition ([2]; Hydroxyurea.25mM): 10.7452
- growth of ABP1 SH3-swapped strains in stress condition ([2]; Hygromycin.190uM): 10.9449
- growth of ABP1 SH3-swapped strains in stress condition ([2]; Hygromycin.19uM): 10.972
- growth of ABP1 SH3-swapped strains in stress condition ([2]; Hygromycin.95uM): 11.0099
- growth of ABP1 SH3-swapped strains in stress condition ([2]; MMS.0.004.): 10.8938
- growth of ABP1 SH3-swapped strains in stress condition ([2]; MMS.0.02.): 10.6752
- growth of ABP1 SH3-swapped strains in stress condition ([2]; MMS.0.04.): 9.941
- growth of ABP1 SH3-swapped strains in stress condition ([2]; Menadione.100uM): 10.5548
- growth of ABP1 SH3-swapped strains in stress condition ([2]; Menadione.200uM): 10.4212
- growth of ABP1 SH3-swapped strains in stress condition ([2]; Menadione.50uM): 10.7634
- growth of ABP1 SH3-swapped strains in stress condition ([2]; NaCl.0.25M): 10.7655
- growth of ABP1 SH3-swapped strains in stress condition ([2]; NaCl.1M): 9.597
- growth of ABP1 SH3-swapped strains in stress condition ([2]; Nitroquinoline.10uM): 10.6917
- growth of ABP1 SH3-swapped strains in stress condition ([2]; Nitroquinoline.50uM): 10.5789
- growth of ABP1 SH3-swapped strains in stress condition ([2]; Nystatin.0.01uM): 10.9774
- growth of ABP1 SH3-swapped strains in stress condition ([2]; Nystatin.0.1uM): 10.9878
- growth of ABP1 SH3-swapped strains in stress condition ([2]; Raffinose.2.): 11.0045
- growth of ABP1 SH3-swapped strains in stress condition ([2]; Rapamycin.10nM): 9.889
- growth of ABP1 SH3-swapped strains in stress condition ([2]; Rapamycin.50nM): 9.373
- growth of ABP1 SH3-swapped strains in stress condition ([2]; SC.pH3): 10.3957
- growth of ABP1 SH3-swapped strains in stress condition ([2]; SC.pH6): 10.965
- growth of ABP1 SH3-swapped strains in stress condition ([2]; SDS.0.01.): 10.9519
- growth of ABP1 SH3-swapped strains in stress condition ([2]; SDS.0.02.): 11.0022
- growth of ABP1 SH3-swapped strains in stress condition ([2]; SDS.0.05.): 10.8383
- growth of ABP1 SH3-swapped strains in stress condition ([2]; Sorbitol.10mM): 10.9602
- growth of ABP1 SH3-swapped strains in stress condition ([2]; Sorbitol.1mM): 11.0196
- growth of ABP1 SH3-swapped strains in stress condition ([2]; Sorbitol.5mM): 10.9136

Substance: YAL005C
- medrep (log2 median colony size normalized to plate background, PCA score) [3]: 4.321
- medrep (log2 median colony size normalized to plate background, PCA score) [4]: 4.297
- medrep (log2 median colony size normalized to plate background, PCA score) [5]: 5.353
- medrep (log2 median colony size normalized to plate background, PCA score) [6]: 4.321
- medrep (log2 median colony size normalized to plate background, PCA score) [7]: 5.43
- medrep (log2 median colony size normalized to plate background, PCA score) [8]: 4.382
- medrep (log2 median colony size normalized to plate background, PCA score) ([9]; 3-8 replicates): 3.321
- Ratio (SH3-deleted/WT medrep) ([9]; only significant differences showed, PPIs completely lost have a ratio of 0.1 and the gained PPIs 2.5): 1.412
- medrep (log2 median colony size normalized to plate background, PCA score) [10]: 4.381
